“And” between values parts separate entries of the source, which are not always exact repeats. Identical values can stand only once.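 Each compound was tested at five concentrations against cells in 96-well plates for 48 hours. GI50 = concentration required for 50% inhibition of growth. At the TGI there is no net growth.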
How the values were obtained:
Experiment in all cases: NCI-60 cell line screen, 48 h
[1] = tested on: A498 renal
[2] = tested on: CAKI-1 renal
[3] = tested on: HOP-92 NSCLC
[4] = tested on: KM12 colon
[5] = tested on: MCF7 breast
[6] = tested on: OVCAR-3 ovarian
[7] = tested on: OVCAR-5 ovarian
[8] = tested on: PC-3 prostate
[9] = tested on: SF-268 CNS
[10] = tested on: SK-MEL-2 melanoma
[11] = tested on: SW-620 colon
[12] = tested on: UACC-62 melanoma

COc1ccc(N=C(Nc2ccc(OC)cc2)C(=Nc2ccc(OC)cc2)Nc2ccc(OC)cc2)cc1
TGI [1]: > 100 µM | TGI [2]: > 100 µM | TGI [3]: > 100 µM | TGI [4]: > 100 µM | TGI [5]: > 100 µM | TGI [6]: > 100 µM | TGI [7]: > 100 µM | TGI [8]: > 100 µM | TGI [9]: > 100 µM | TGI [10]: > 100 µM | TGI [11]: > 100 µM | TGI [12]: > 100 µM

COc1cc2c(cc1OC)CC(N=[N+]=[N-])c1cc(OC)c(OC)cc1/C=C\2 (centres undefined)
TGI [1]: > 100 µM | TGI [2]: 95.3 µM | TGI [3]: > 100 µM | TGI [4]: > 100 µM | TGI [5]: > 100 µM | TGI [6]: > 100 µM | TGI [7]: > 100 µM | TGI [8]: > 100 µM | TGI [9]: > 100 µM | TGI [10]: > 100 µM | TGI [11]: > 100 µM | TGI [12]: > 100 µM

CCOC(=O)CCC(NC(=O)c1ccc(N2CCN(c3c(C)nc(N)nc3N)CC2)cc1)C(=O)OCC (centres undefined)
TGI [1]: > 100 µM | TGI [2]: > 100 µM | TGI [3]: > 100 µM | TGI [4]: > 100 µM | TGI [5]: > 100 µM | TGI [6]: > 100 µM | TGI [7]: > 100 µM | TGI [8]: > 100 µM | TGI [9]: > 100 µM | TGI [10]: > 100 µM | TGI [11]: > 100 µM | TGI [12]: > 100 µM

Brc1ccc2[nH]cc(-c3nc(-c4c[nH]c5ccccc45)cs3)c2c1
TGI [1]: 8.47 µM | TGI [2]: 8.2 µM | TGI [3]: 7.86 µM | TGI [4]: 5.1 µM | TGI [5]: > 100 µM | TGI [6]: 15.5 µM | TGI [7]: 5.37 µM | TGI [8]: 9.55 µM | TGI [9]: 11.4 µM | TGI [10]: 8.43 µM | TGI [11]: 13.3 µM | TGI [12]: 6.95 µM

O=C1CCCCc2cccc(O)c21
TGI [1]: > 100 µM | TGI [2]: > 100 µM | TGI [3]: > 100 µM | TGI [4]: > 100 µM | TGI [5]: > 100 µM | TGI [6]: > 100 µM | TGI [7]: > 100 µM | TGI [8]: > 100 µM | TGI [9]: > 100 µM | TGI [10]: > 100 µM | TGI [11]: > 100 µM | TGI [12]: > 100 µM

CC(C)=CCC/C(C)=C/CC/C(C)=C/CC/C(C)=C/CC/C(C)=C\CC/C(C)=C/CC/C(C)=C/CC/C(C)=C/Cc1cc(O)ccc1O
TGI [1]: 3.51 µM | TGI [2]: 0.703 µM | TGI [3]: > 32.8 µM | TGI [4]: 2.53 µM | TGI [5]: 2.89 µM | TGI [6]: 1.94 µM | TGI [7]: 36.4 µM | TGI [8]: 2.44 µM | TGI [9]: 5.21 µM | TGI [10]: 3.14 µM | TGI [11]: > 100 µM | TGI [12]: 0.857 µM

CNC(=S)N/N=C/c1cccc(C)n1
TGI [1]: > 71 µM | TGI [2]: > 100 µM | TGI [3]: > 100 µM | TGI [4]: > 100 µM | TGI [5]: > 100 µM | TGI [6]: > 100 µM | TGI [7]: > 100 µM | TGI [8]: > 100 µM | TGI [9]: > 76 µM | TGI [10]: > 100 µM | TGI [11]: > 100 µM | TGI [12]: 56.4 µM

C#C[C@]1(O)CC[C@H]2[C@@H]3CCc4cc(OC(=O)c5cccc6cc7ccccc7nc56)ccc4[C@H]3CC[C@@]21C
TGI [1]: > 100 µM | TGI [2]: 65.1 µM | TGI [3]: > 100 µM | TGI [4]: 50.6 µM | TGI [5]: > 100 µM | TGI [6]: 63 µM | TGI [7]: > 100 µM | TGI [8]: > 100 µM | TGI [9]: > 100 µM | TGI [10]: > 100 µM | TGI [11]: > 100 µM | TGI [12]: 80.4 µM

Cc1cc2c(c(C=NCc3ccccc3)c1)OC1(C=C2)Oc2ccccc2C(=O)N1C (centres undefined)
TGI [1]: 77.6 µM | TGI [2]: 66.5 µM | TGI [3]: 43 µM | TGI [4]: 64.5 µM | TGI [5]: > 100 µM | TGI [6]: > 100 µM | TGI [7]: 56 µM | TGI [8]: 75.3 µM | TGI [9]: 76.3 µM | TGI [10]: 62.6 µM | TGI [11]: > 100 µM | TGI [12]: 48.2 µM

CCOc1ccc(NCc2cc(OC)c(OC)c(OC)c2)cc1
GI50 [1]: 1.05 µM and 4.61 µM | TGI [1]: > 48 µM and 59.5 µM | GI50 [2]: 2.01 µM and 7.61 µM | TGI [2]: > 100 µM | TGI [3]: > 91.6 µM | TGI [4]: > 81.5 µM and 46.4 µM | TGI [5]: > 100 µM | TGI [6]: 1.65 µM and 2.22 µM | GI50 [7]: 10.5 µM and 4.43 µM | TGI [7]: > 93.8 µM | TGI [8]: > 100 µM | TGI [9]: > 100 µM | GI50 [10]: 2.22 µM and 0.429 µM | TGI [10]: > 100 µM | TGI [11]: > 100 µM | TGI [12]: > 100 µM
